Laboratory results: patent publication US20230257372A1 (CHONG KUN DANG PHARMACEUTICAL CORP., priority 2020, published 2023)
Read-outs that look alike come from different tables or passages of the source.

Tests used:
human recombinant HDAC1 = molecular target: T1, human recombinant HDAC1 (Homo sapiens, UniProt Q13547); assay: HDAC1 enzyme activity inhibition (HDAC Fluorimetric Drug Discovery Kit); assay type: biochemical; details: read-out: HDAC1
T1 construct: purchased Enzo Life Science, Inc. BML-SE456
Procedure, shortened: (§1)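 Each isoform is run in the same format: compound dilutions (5-fold steps), 10 μM substrate, […] enzyme, one hour at 30° C, then 30 minutes with developer before fluorescence readout.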

human recombinant HDAC6 = molecular target: T2, human recombinant HDAC6 (Homo sapiens, UniProt Q9UBN7); assay: HDAC6 enzyme activity inhibition (HDAC Fluorimetric Drug Discovery Kit); assay type: biochemical
T2 construct: purchased Calbiochem Inc. 382180
T2 sequence (Q9UBN7 1-1215): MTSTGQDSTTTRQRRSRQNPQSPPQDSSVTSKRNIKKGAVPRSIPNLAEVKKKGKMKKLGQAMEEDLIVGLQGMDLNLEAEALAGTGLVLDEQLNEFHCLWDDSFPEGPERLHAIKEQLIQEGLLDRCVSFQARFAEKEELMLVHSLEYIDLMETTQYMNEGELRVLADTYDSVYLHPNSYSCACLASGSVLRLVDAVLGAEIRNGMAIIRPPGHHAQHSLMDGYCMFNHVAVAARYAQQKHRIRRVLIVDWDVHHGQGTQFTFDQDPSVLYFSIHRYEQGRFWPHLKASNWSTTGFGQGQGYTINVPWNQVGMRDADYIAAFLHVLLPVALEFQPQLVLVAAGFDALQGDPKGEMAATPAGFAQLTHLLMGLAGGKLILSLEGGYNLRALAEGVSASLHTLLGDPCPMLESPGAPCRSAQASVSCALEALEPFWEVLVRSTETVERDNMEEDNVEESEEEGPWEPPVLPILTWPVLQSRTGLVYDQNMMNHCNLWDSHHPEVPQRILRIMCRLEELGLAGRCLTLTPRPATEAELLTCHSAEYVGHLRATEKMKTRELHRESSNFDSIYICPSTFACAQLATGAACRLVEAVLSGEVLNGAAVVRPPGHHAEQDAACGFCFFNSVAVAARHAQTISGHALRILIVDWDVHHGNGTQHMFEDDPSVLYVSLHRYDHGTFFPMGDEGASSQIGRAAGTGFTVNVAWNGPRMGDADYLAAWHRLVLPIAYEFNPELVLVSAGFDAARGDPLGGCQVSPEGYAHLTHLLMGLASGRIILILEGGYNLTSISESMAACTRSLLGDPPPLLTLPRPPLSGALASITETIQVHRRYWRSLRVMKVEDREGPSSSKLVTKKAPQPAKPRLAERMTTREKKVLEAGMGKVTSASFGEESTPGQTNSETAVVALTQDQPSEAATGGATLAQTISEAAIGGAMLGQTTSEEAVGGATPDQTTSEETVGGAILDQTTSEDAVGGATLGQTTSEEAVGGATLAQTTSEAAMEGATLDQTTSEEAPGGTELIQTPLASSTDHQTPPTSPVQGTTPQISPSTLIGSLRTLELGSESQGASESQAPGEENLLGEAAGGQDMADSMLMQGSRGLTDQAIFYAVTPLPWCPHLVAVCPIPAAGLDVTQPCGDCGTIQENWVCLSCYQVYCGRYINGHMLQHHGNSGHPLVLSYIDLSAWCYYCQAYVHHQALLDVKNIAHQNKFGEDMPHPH
Procedure, shortened: as §1

[1] = human recombinant HDAC1, IC50 calculated with GraphPad Prism
[2] = human recombinant HDAC6, IC50 calculated with GraphPad Prism
[3] = human recombinant HDAC1, Fluor de Lys substrate, 30° C. 60 minutes
[4] = human recombinant HDAC6, same protocol as HDAC1

T1 sequence (Q13547 whole entry): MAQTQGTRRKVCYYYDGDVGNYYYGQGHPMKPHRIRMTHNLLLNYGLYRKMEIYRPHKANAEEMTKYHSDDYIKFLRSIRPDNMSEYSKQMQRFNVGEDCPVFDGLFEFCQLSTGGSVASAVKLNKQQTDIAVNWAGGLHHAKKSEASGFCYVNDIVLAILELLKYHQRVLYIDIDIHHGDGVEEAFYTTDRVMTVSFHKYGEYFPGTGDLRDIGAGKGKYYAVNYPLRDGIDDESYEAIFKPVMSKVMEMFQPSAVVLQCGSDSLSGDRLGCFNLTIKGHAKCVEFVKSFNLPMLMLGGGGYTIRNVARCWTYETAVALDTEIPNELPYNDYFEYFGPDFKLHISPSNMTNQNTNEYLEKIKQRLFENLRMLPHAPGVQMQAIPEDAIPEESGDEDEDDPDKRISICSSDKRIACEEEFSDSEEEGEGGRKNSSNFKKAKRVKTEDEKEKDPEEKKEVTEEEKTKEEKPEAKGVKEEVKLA

IC50 (human recombinant HDAC1; [1]) [µM]	HDAC6 selectivity (fold) (human recombinant HDAC6; HDAC1 IC50 / HDAC6 IC50)	IC50 (human recombinant HDAC6; [2]) [nM]	IC50 (human recombinant HDAC1; [3]) [µM]	HDAC6 selectivity (fold) (human recombinant HDAC6; HDAC6 over HDAC1)	IC50 (human recombinant HDAC6; [4]) [nM]	Compound
> 50	2183	22.9	–	–	–	C[C@@H]1CN(c2cccc(-c3cn(Cc4ccc(-c5nnc(C(F)F)o5)cc4F)nn3)c2)C[C@H](C)N1C [Compound 4443, 2-(difluoromethyl)-5-(3-fluoro-4-((4-(3-((3R,5S)-3,4,5-trimethylpiperazin-1-yl)phenyl)-1H-1,2,3-triazol-1-yl)methyl)phenyl)-1,3,4-oxadiazole]
> 50	965	51.8	–	–	–	FC(F)c1nnc(-c2ccc(Cn3cc(-c4ccncc4)nn3)nc2)o1 [Compound 3837, 2-(difluoromethyl)-5-(6-((4-(pyridin-4-yl)-1H-1,2,3-triazol-1-yl)methyl)pyridin-3-yl)-1,3,4-oxadiazole]
> 50	797	62.7	–	–	–	CN(C)CCC(=O)Nc1cccc(-c2cn(Cc3ccc(-c4nnc(C(F)F)o4)cc3F)nn2)c1 [Compound 4335]
–	–	–	> 50	980	51	Fc1cc(-c2nnc(C(F)F)o2)ccc1Cn1cc(-c2ccc(CN3CCC3)nc2)nn1 [Compound 18174, 2-(4-((4-(6-(azetidin-1-ylmethyl)pyridin-3-yl)-1H-1,2,3-triazol-1-yl)methyl)-3-fluorophenyl)-5-(difluoromethyl)-1,3,4-oxadiazole]
> 50	412	121	–	–	–	CN(C)c1cccc(-c2cn(Cc3ccc(-c4nnc(C(F)F)o4)cc3F)nn2)c1 [Compound 3774, 3-(1-(4-(5-(difluoromethyl)-1,3,4-oxadiazol-2-yl)-2-fluorobenzyl)-1H-1,2,3-triazol-4-yl)-N,N-dimethylaniline]
> 50	96	520	–	–	–	CCN1CCCC(c2cn(Cc3ccc(-c4nnc(C(F)F)o4)cn3)nn2)C1 (stereo not drawn) [Compound 4002, 2-(difluoromethyl)-5-(6-((4-(1-ethylpiperidin-3-yl)-1H-1,2,3-triazol-1-yl)methyl)pyridin-3-yl)-1,3,4-oxadiazole]
–	–	–	> 50	2314	21.6	Fc1c(-c2cn(Cc3ccc(-c4nnc(C(F)F)o4)cn3)nn2)cccc1N1CCN(C2COC2)CC1 [Compound 4573, 2-(difluoromethyl)-5-(6-((4-(2-fluoro-3-(4-(oxetan-3-yl)piperazin-1-yl)phenyl)-1H-1,2,3-triazol-1-yl)methyl)pyridin-3-yl)-1,3,4-oxadiazole]
–	–	–	> 50	662	75.5	FC(F)c1nnc(-c2ccc(Cn3cc(-c4cccc5c4CN(C4COC4)C5)nn3)nc2)o1 [Compound 4599, 2-(difluoromethyl)-5-(6-((4-(2-(oxetan-3-yl)isoindolin-4-yl)-1H-1,2,3-triazol-1-yl)methyl)pyridin-3-yl)-1,3,4-oxadiazole]
> 50	1213	41.2	–	–	–	Fc1cc(-c2nnc(C(F)F)o2)ccc1Cn1cc(-c2cccc(CN3CC(F)C3)c2)nn1 [Compound 4403, 2-(difluoromethyl)-5-(3-fluoro-4-((4-(3-((3-fluoroazetidin-1-yl)methyl)phenyl)-1H-1,2,3-triazol-1-yl)methyl)phenyl)-1,3,4-oxadiazole]
–	–	–	> 50	1012	49.4	CN(C)Cc1cccc(-c2cn(Cc3ccc(-c4nnc(C(F)F)o4)cc3F)nn2)c1Cl [Compound 18554, 1-(2-chloro-3-(1-(4-(5-(difluoromethyl)-1,3,4-oxadiazol-2-yl)-2-fluorobenzyl)-1H-1,2,3-triazol-4-yl)phenyl)-N,N-dimethylmethanamine]
> 50	215	232	–	–	–	Cc1ccc(-c2cn(Cc3ccc(-c4nnc(C(F)F)o4)cc3F)nn2)cc1 [Compound 3733, 2-(difluoromethyl)-5-(3-fluoro-4-((4-(p-tolyl)-1H-1,2,3-triazol-1-yl)methyl)phenyl)-1,3,4-oxadiazole]
> 50	662	75.5	–	–	–	FC(F)c1nnc(-c2ccc(Cn3cc(-c4cccc(CN5CCOCC5)c4)nn3)cc2)o1 [Compound 4411, 4-(3-(1-(4-(5-(difluoromethyl)-1,3,4-oxadiazol-2-yl)benzyl)-1H-1,2,3-triazol-4-yl)benzyl)morpholine]
> 50	841	59.4	–	–	–	FC(F)c1nnc(-c2ccc(Cn3cc(-c4cccc(CN5CCC5)c4)nn3)nc2)o1 [Compound 3963, 2-(6-((4-(3-(azetidin-1-ylmethyl)phenyl)-1H-1,2,3-triazol-1-yl)methyl)pyridin-3-yl)-5-(difluoromethyl)-1,3,4-oxadiazole]
–	–	–	> 50	568	87.9	CC1CCN(Cc2ccc(-c3cn(Cc4ccc(-c5nnc(C(F)F)o5)cc4F)nn3)s2)CC1 [Compound 17915]
> 50	431	116	–	–	–	CC(C)N1CCN(c2cc(-c3cn(Cc4ccc(-c5nnc(C(F)F)o5)cc4F)nn3)ccc2F)CC1 [Compound 4425]
–	–	–	> 50	3496	14.3	Fc1cc(-c2nnc(C(F)F)o2)ccc1Cn1cc(-c2ccc(CN3CCCCC3)cc2)nn1 [Compound 4610, 2-(difluoromethyl)-5-(3-fluoro-4-((4-(4-(piperidin-1-ylmethyl)phenyl)-1H-1,2,3-triazol-1-yl)methyl)phenyl)-1,3,4-oxadiazole]
> 50	1106	45.2	–	–	–	Fc1cc(-c2nnc(C(F)F)o2)ccc1Cn1cc(-c2cccc(NC3CCOCC3)c2)nn1 [Compound 4331, N-(3-(1-(4-(5-(difluoromethyl)-1,3,4-oxadiazol-2-yl)-2-fluorobenzyl)-1H-1,2,3-triazol-4-yl)phenyl)tetrahydro-2H-pyran-4-amine]
–	–	–	> 50	2262	22.1	CCN1CC(c2cccc(-c3cn(Cc4ccc(-c5nnc(C(F)F)o5)cc4F)nn3)c2)C1 [Compound 4506, 2-(difluoromethyl)-5-(4-((4-(3-(1-ethylazetidin-3-yl)phenyl)-1H-1,2,3-triazol-1-yl)methyl)-3-fluorophenyl)-1,3,4-oxadiazole]
> 50	246	203	–	–	–	CN1CCC(Cc2cn(Cc3ccc(-c4nnc(C(F)F)o4)cn3)nn2)CC1 [Compound 4014, 2-(difluoromethyl)-5-(6-((4-((1-methylpiperidin-4-yl)methyl)-1H-1,2,3-triazol-1-yl)methyl)pyridin-3-yl)-1,3,4-oxadiazole]
–	–	–	> 50	830	60.2	Fc1cc(-c2nnc(C(F)F)o2)cnc1Cn1cc(-c2ccc3cn[nH]c3c2)nn1 [Compound 18919, 2-(6-((4-(1H-indazol-6-yl)-1H-1,2,3-triazol-1-yl)methyl)-5-fluoropyridin-3-yl)-5-(difluoromethyl)-1,3,4-oxadiazole]
–	–	–	> 50	922	54.2	Fc1cc(-c2nnc(C(F)F)o2)ccc1Cn1cc(-c2cc3c(s2)CNCC3)nn1 [Compound 4499, 2-(difluoromethyl)-5-(3-fluoro-4-((4-(4,5,6,7-tetrahydrothieno[2,3-c]pyridin-2-yl)-1H-1,2,3-triazol-1-yl)methyl)phenyl)-1,3,4-oxadiazole]

Compound	IC50 (human recombinant HDAC1; [1]) [µM]	HDAC6 selectivity (fold) (human recombinant HDAC6; HDAC1 IC50 / HDAC6 IC50)	IC50 (human recombinant HDAC6; [2]) [nM]	IC50 (human recombinant HDAC1; [3]) [µM]	HDAC6 selectivity (fold) (human recombinant HDAC6; HDAC6 over HDAC1)	IC50 (human recombinant HDAC6; [4]) [nM]
FC(F)c1nnc(-c2ccc(Cn3cc(-c4cccnc4)nn3)nc2)o1 [Compound 3835, 2-(difluoromethyl)-5-(6-((4-(pyridin-3-yl)-1H-1,2,3-triazol-1-yl)methyl)pyridin-3-yl)-1,3,4-oxadiazole]	> 50	1170	42.7	–	–	–
